SMILES strings stand for the structures.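 Values below derive from 48-hour exposures of cells grown in 96-well plates, with endpoints linearly interpolated between the two concentrations bracketing the appropriate inhibition level. At the GI50, growth is halved. TGI denotes the concentration required for complete inhibition of growth.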

Among the test systems are HL-60(TB) leukemia; A549 NSCLC; SF-295 CNS; TK-10 renal; NCI-H23 lung; PC-3 prostate; HOP-92 NSCLC; DU-145 prostate; SK-MEL-5 melanoma; EKVX NSCLC.
Assay in all cases: growth of human tumour cells (NCI), 48 h

Regarding `O=C1OC(=O)c2c1cc1cc3c(cc1c2-c1ccc2c(c1)OCO2)OCO3`, the TGI in the assay on HL-60(TB) leukemia, in the assay on A549 NSCLC, with SF-295 CNS, in the assay on TK-10 renal, in the assay with NCI-H23 lung and with PC-3 prostate was more than 100 µM throughout. In addition, the TGI in the assay on HOP-92 NSCLC, with DU-145 prostate and in the assay with SK-MEL-5 melanoma was more than 100 µM each time.

For the molecule `CN(C)Cc1c[nH]c2nc[nH]c(=O)c12`, the TGI in the assay on HL-60(TB) leukemia is 42.4 µM; in the assay on A549 NSCLC, more than 100 µM; with SF-295 CNS, more than 100 µM; with TK-10 renal it was more than 100 µM; in the assay with NCI-H23 lung it was more than 100 µM; with PC-3 prostate, more than 100 µM. The TGI in the assay on HOP-92 NSCLC was 85.8 µM; in the assay with EKVX NSCLC, more than 100 µM; with DU-145 prostate, 64.8 µM; in the assay with SK-MEL-5 melanoma, more than 100 µM.

Take `O=C1C=CC(=O)N1c1ccc2ccccc2c1`: the GI50 is 7.74 µM in the assay on HL-60(TB) leukemia; 20.3 µM in the assay with A549 NSCLC; more than 100 µM in the assay on SF-295 CNS; 6.4 µM in the assay with TK-10 renal; 17.1 µM in the assay on NCI-H23 lung; 18.1 µM in the assay on PC-3 prostate. In addition, the GI50 is 7.59 µM in the assay on HOP-92 NSCLC, 17.9 µM in the assay on EKVX NSCLC, 12.3 µM in the assay with DU-145 prostate and 16.4 µM in the assay with SK-MEL-5 melanoma. For the same molecule, the TGI in the assay with HL-60(TB) leukemia was 33.5 µM; with A549 NSCLC, 43.2 µM; with SF-295 CNS, more than 100 µM; in the assay on TK-10 renal, 19.1 µM; in the assay with NCI-H23 lung, 37.2 µM; with PC-3 prostate, 37.8 µM. Further, the TGI with HOP-92 NSCLC turned out to be 22.2 µM; with EKVX NSCLC, 39.6 µM; in the assay on DU-145 prostate it was 25.6 µM; with SK-MEL-5 melanoma it was 30.4 µM.

For `O=C(/C=C/c1cccc(Cl)c1)c1ccccc1`, the GI50 was 2.96 µM in the assay with HL-60(TB) leukemia; 14.9 µM in the assay with A549 NSCLC; 3.88 µM in the assay on SF-295 CNS; 14.8 µM in the assay on NCI-H23 lung; 4.13 µM in the assay with PC-3 prostate; 16.3 µM with HOP-92 NSCLC. The results for the GI50 in the assay on EKVX NSCLC, with DU-145 prostate and in the assay on SK-MEL-5 melanoma were 14.8 µM, 11.7 µM and 13.2 µM, respectively. The TGI was 6.58 µM in the assay on HL-60(TB) leukemia; 29.3 µM with A549 NSCLC; 18 µM with SF-295 CNS; 29.6 µM with NCI-H23 lung; 22.3 µM in the assay with PC-3 prostate; 32.8 µM in the assay with HOP-92 NSCLC. Besides, the figures for the TGI with EKVX NSCLC, in the assay with DU-145 prostate and in the assay with SK-MEL-5 melanoma were 29.3 µM, 24.2 µM and 26.3 µM, respectively.

For `O=C(Nc1cccc2[nH]c(C(F)(F)F)nc12)c1ccc(Br)cc1F`, the GI50 is 3.05 µM with HL-60(TB) leukemia; 3.27 µM in the assay on A549 NSCLC; 2.94 µM in the assay on SF-295 CNS; 3.43 µM in the assay on TK-10 renal; 3.12 µM with NCI-H23 lung; 2.75 µM in the assay on PC-3 prostate. The figures for the GI50 in the assay with HOP-92 NSCLC, in the assay on DU-145 prostate and in the assay with SK-MEL-5 melanoma were 1.38 µM, 4.87 µM and 1.85 µM, respectively. Moreover, the TGI in the assay with HL-60(TB) leukemia came to 16 µM; in the assay with A549 NSCLC, 13.3 µM; in the assay on SF-295 CNS it was 10.3 µM; with TK-10 renal, 9.55 µM; with NCI-H23 lung, 10.6 µM; in the assay with PC-3 prostate, 10.4 µM. The TGI in the assay on HOP-92 NSCLC amounted to 4.1 µM; with DU-145 prostate it was 20.5 µM; in the assay with SK-MEL-5 melanoma it was 3.94 µM.

For the molecule `Cc1nc2ccccc2c(/C=C/c2ccc(C(F)(F)F)cc2)c1C(=O)/C=C/c1ccccc1`, the GI50 is 1.94 µM in the assay on HL-60(TB) leukemia; 1.79 µM in the assay on A549 NSCLC; 1.77 µM with SF-295 CNS; 2.05 µM in the assay with TK-10 renal; 1.34 µM in the assay on PC-3 prostate; 1.32 µM in the assay on HOP-92 NSCLC. Further, the results for the GI50 in the assay on EKVX NSCLC, in the assay with DU-145 prostate and with SK-MEL-5 melanoma were 1.61 µM, 1.6 µM and 1.69 µM, respectively. Besides, the TGI with HL-60(TB) leukemia was found to be 4.44 µM; with A549 NSCLC it was 4.73 µM; with SF-295 CNS, 3.22 µM; in the assay with TK-10 renal, 3.63 µM; in the assay on PC-3 prostate, 3.17 µM; in the assay with HOP-92 NSCLC, 2.98 µM. The TGI in the assay with EKVX NSCLC is 2.99 µM; in the assay on DU-145 prostate, 3.1 µM; in the assay on SK-MEL-5 melanoma, 3.05 µM.

Regarding `O=C1/C(=C/c2ccc([N+](=O)[O-])s2)Oc2ccc(Br)cc21`, the GI50 was 0.487 µM in the assay with HL-60(TB) leukemia; 0.376 µM in the assay with A549 NSCLC; 1.24 µM in the assay on SF-295 CNS; 0.389 µM in the assay on TK-10 renal; 0.549 µM in the assay on NCI-H23 lung; 0.251 µM in the assay on PC-3 prostate. For the same molecule, the GI50 in the assay on HOP-92 NSCLC was 0.21 µM; with DU-145 prostate, 1.43 µM; with SK-MEL-5 melanoma it was 0.268 µM. The TGI in the assay on HL-60(TB) leukemia is 7.5 µM; in the assay on A549 NSCLC, 1.68 µM; with SF-295 CNS, 3.35 µM; with TK-10 renal it was 4.66 µM; in the assay on NCI-H23 lung, 2.22 µM; in the assay on PC-3 prostate, 0.774 µM. Further, the TGI stood at 0.606 µM in the assay with HOP-92 NSCLC, 2.9 µM with DU-145 prostate and 0.805 µM in the assay with SK-MEL-5 melanoma.

Turning to `O=C(N/N=C/c1coc2ccc(Cl)cc2c1=O)c1cc(O)c(O)c(O)c1`, the GI50 with A549 NSCLC was 31.4 µM; in the assay with SF-295 CNS, 45.8 µM; in the assay with NCI-H23 lung, 16.2 µM; with PC-3 prostate, 33.2 µM; in the assay with HOP-92 NSCLC, 31.9 µM; in the assay with EKVX NSCLC, 27.1 µM. The GI50 with DU-145 prostate was 30.7 µM; in the assay with SK-MEL-5 melanoma, 11.6 µM. Besides, the TGI in the assay with A549 NSCLC is more than 100 µM; in the assay with SF-295 CNS, more than 100 µM; with NCI-H23 lung, 48.1 µM; with PC-3 prostate, more than 100 µM; with HOP-92 NSCLC, more than 100 µM; in the assay with EKVX NSCLC it was more than 100 µM. The TGI is more than 100 µM in the assay with DU-145 prostate and 34.2 µM with SK-MEL-5 melanoma.

Regarding `C=CCC(NCc1ccccc1)c1cn(C(=O)OCC)c2ccccc12` (stereo not given), the GI50 in the assay with A549 NSCLC was 31.5 µM; in the assay with SF-295 CNS, 21.7 µM; in the assay with TK-10 renal, 16.5 µM; in the assay with NCI-H23 lung, 17.7 µM; in the assay with PC-3 prostate it was 22.9 µM; in the assay with HOP-92 NSCLC it was 13.8 µM. In addition, the GI50 in the assay on EKVX NSCLC was 20.7 µM; in the assay on DU-145 prostate, 20.8 µM; with SK-MEL-5 melanoma, 13.9 µM. Further, the TGI with A549 NSCLC was more than 100 µM; in the assay with SF-295 CNS it was 47.4 µM; in the assay on TK-10 renal it was 36.6 µM; with NCI-H23 lung, 43.6 µM; with PC-3 prostate it was 96.4 µM; in the assay on HOP-92 NSCLC, 40.7 µM. Besides, the TGI in the assay with EKVX NSCLC is 55.4 µM; in the assay on DU-145 prostate, 60.7 µM; in the assay with SK-MEL-5 melanoma it was 28 µM.

The values above are taken from PubChem BioAssay (NCI).
